Data reported in the supplement of paper PMC10307832.

How the values were obtained:
Experiment in all cases: relative viability (nuclei count vs DMSO), 5 days (fraction); higher = more cells survive
[1] = compound: CC1=NC=CC(=C1)C2=CC=C(C=C2)CC(=O)NC3=CC=C(C=C3)C4=CN=CC=C4 [Wnt-C59] + Cc1cc(Nc2cc(N3CCN(C)CC3)nc(Sc3ccc(NC(=O)C4CC4)cc3)n2)n[nH]1 [Tozasertib] (partner 0.1 µM)
Method in brief: (§1)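 Relative viability equals treated-well nuclei counts divided by vehicle-well nuclei counts. Counts came from 4× images of lung cancer cell lines grown in 1536-well plates for 5 days after pin-tool dosing on the day after seeding. Dosing used one drug alone or a fixed anchor-drug dose plus five library-drug doses (not always all listed) in √10 steps, and values are medians of duplicate plates.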

[2] = compound: CS(=O)(=O)CCNCc1ccc(-c2ccc3ncnc(Nc4ccc(OCc5cccc(F)c5)c(Cl)c4)c3c2)o1 [Lapatinib] + CC1(C)CCC(c2ccc(Cl)cc2)=C(CN2CCN(c3ccc(C(=O)NS(=O)(=O)c4ccc(N[C@H](CCN5CCOCC5)CSc5ccccc5)c(S(=O)(=O)C(F)(F)F)c4)cc3)CC2)C1 [Navitoclax] (partner 0.5 µM)
Method in brief: as §1

[3] = compound: CC1=NC=CC(=C1)C2=CC=C(C=C2)CC(=O)NC3=CC=C(C=C3)C4=CN=CC=C4 [Wnt-C59] + CC(=O)c1c(C)c2cnc(Nc3ccc(N4CCNCC4)cn3)nc2n(C2CCCC2)c1=O [Palbociclib] (partner 0.5 µM)
Method in brief: as §1

[4] = compound: CS(=O)(=O)CCNCc1ccc(-c2ccc3ncnc(Nc4ccc(OCc5cccc(F)c5)c(Cl)c4)c3c2)o1 [Lapatinib] + CC(C)C[C@H](NC(=O)[C@H](Cc1ccccc1)NC(=O)c1cnccn1)B(O)O [Bortezomib] (partner 0.002 µM)
Method in brief: as §1

UMC-11 showed a relative viability ([1]; first compound 0.001 µM) of 0.214, a relative viability ([1]; first compound 0.01 µM) of 0.197 and a relative viability ([1]; first compound 0.03162 µM) of 0.203. For the same cell line, the relative viability ([1]; first compound 0.1 µM) was 0.226, the relative viability ([2]; first compound 0.02 µM) was 0.352 and the relative viability ([2]; first compound 0.06325 µM) was 0.278. For the same cell line, the relative viability ([2]; first compound 0.2 µM) was 0.311, the relative viability ([2]; first compound 0.6325 µM) was 0.318 and the relative viability ([2]; first compound 2 µM) was 0.314. For the same cell line, the relative viability ([3]; first compound 0.001 µM) was 0.337, the relative viability ([3]; first compound 0.01 µM) was 0.319 and the relative viability ([3]; first compound 0.03162 µM) was 0.361. It also gave a relative viability ([3]; first compound 0.1 µM) of 0.305, a relative viability ([4]; first compound 0.02 µM) of 0.838 and a relative viability ([4]; first compound 0.06325 µM) of 0.705. The relative viability ([4]; first compound 0.2 µM) was 0.852, the relative viability ([4]; first compound 0.6325 µM) was 0.798 and the relative viability ([4]; first compound 2 µM) was 0.665.
